Experiments:
[1] = target: BRD2(1,2) (Homo sapiens (Human), UniProt P25440); experiment: AlphaScreen binding of compounds on BRD2 (D1+D2); details: read-out: IC50 against BRD2(1,2)
Text: Homogeneous time-resolved fluorescence technology (HTRF) was used to determine the binding effect of compounds on BRD4 (D1+D2) and BRDT (D1) proteins, as well as AlphaScreen method was used to detect the binding effect of compounds on BRD2 (D1+D2) and BRD3 (D1+D2) proteins.
The compounds were screened in vitro, and each compound was serially diluted to 10 concentrations. Four proteins BRD4 (D1+D2), BRDT (D1), BRD2 (D1+D2) and BRD3 (D1+D2) were chosen to determine the IC50 values of compounds (see Table 1).
4. Compound treatment: The test compound was dissolved in dimethyl sulfoxide (DMSO), and the storage concentration was 10 mM.
6. AlphaScreen Detection Procedures:
1) Preparing One-Fold Concentration of Detection Buffer
One-fold concentration of detection buffer was prepared (Improved HEPES buffer)
2) Gradient Dilution of Compounds
Echo automatic sampler was used to transfer the compound to the detection plate for gradient dilution, so that the final concentration of dimethyl sulfoxide was 0.1%.
3) Preparation of Protein Solution
The protein was dissolved in one-fold concentration of detection buffer.
4) Preparation of Substrate Solution
The peptide was dissolved in one-fold concentration of detection buffer to prepare the substrate solution.
5) 5 μL protein solution was transferred to the detection plate, and one-fold concentration of detection buffer (5 μL) was placed in the negative control wells.
6) The plate was incubated for 15 min at room temperature.
7) 5 μL substrate solution was added to each well to start the reaction.
8) The plate was incubated for additional 60 min at room temperature.
9) Preparation of acceptor solution and donor solution in one-fold concentration of assay buffer Acceptor solution (15 μL) and donor solution (15 μL) were respectively added, and then incubated at room temperature for 60 min and protected against exposure to light.
10) The endpoint was read in EnSpire and Alpha mode.
The experimental data were recorded in an Excel file and equation (1) was used to get the inhibition rate. Inh%=(Max−Signal)/(Max−Min)*100 Equation (1):
The obtained data were input into GraphPad software, and equation (2) was used to obtain the IC50 value. Y=Bottom+(Top−Bottom)/(1+10^((Log IC50−X)*Hill Slope)) Formula (2): […]
Wherein, Y axis was the inhibition rate, and the X axis was the compound concentration.

[2] = tested on: CWR22RV1 cells; experiment: Inhibition of proliferation of CWR22RV1 cells (CCK-8); format: cell-based, human; details: Homo sapiens, CWR22Rv1, 144 h, 6 days
In short: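 Cells seeded at 1500/well, cultured overnight, then exposed to compounds in 3-fold dilutions (9 concentrations from 10 μM top final, 0.1% DMSO) for 6 days at 37 °C. Viability read by CCK-8 absorbance at 450 nm after 2.5 h; IC50 from dose-response inhibition fit.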

[3] = tested on: MCF-7 cells; experiment: Inhibition of proliferation of MCF-7 cells (CCK-8); format: cell-based, human; details: for IC50: Homo sapiens, MCF7, 144 h, 6 days, CCK-8
Experimental: • MCF-7 cell line (Cell Bank of Chinese Academy of Sciences, TCHu74) • FBS (Gibco, Cat. No. 10099-141) • 0.01M PBS (Biosharp, Cat. No. 162262) • RIPM1640 (Hyclone, Cat. No. 308090.01) • Penicillin-Streptomycin (Hyclone, Cat. No. SV30010) • Cell counting kit-8 (Signalway Antibody, Cat. No. CP002) • DMSO (Sigma, Cat. No. D5879) • Centrifuge Tube, 15 ml (Excell Bio, Cat. No. CS015-0001) • Cell Culture Dish, (Excell Bio, Cat. No. CS016-0128) • 96-well cell culture cluster (Corning, Cat. No. 3599) 3. Experimental Method
1) MCF-7 cells were subcultured in cell culture media, and the cells in good growth condition were seeded in a 96-well plate, 80 μL for each well, thus the number of cells per well was 1000, then the plate was cultured overnight in a 37° C., 5% CO2 cell incubator.
2) The drug was prepared with dimethyl sulfoxide (DMSO) as a 10 mM stock solution. Prior to use, the solution was diluted 3 times with DMSO, and then diluted with a 3-fold gradient to obtain 9 concentration gradients. Then, each concentration of the compound was further diluted 200 times with the culture media (to ensure that DMSO concentration in the culture system was 0.1%), 2 repeat wells for each concentration. The diluted solution of each compound (20 μL) was added to the cell culture well (with a final concentration of 10 μM, 3.3 μM, 1.1 μM . . . ), and shaken gently for mixing.
In addition, three negative control wells containing only cells and three blank control wells containing only culture medium (20 μL DMSO diluted 200 times with culture medium being added to six wells) were included.
(1) After culturing for 6 days, 10 μL CCK-8 was added to each well and cultured for additional 2.5 h in a 37° C., 5% CO2 cell incubator.
(2) The absorbance (OD value) at 450 nm was measured with a multifunctional microplate reader.
(3) The data was analyzed by the Dose-response-inhibition equation in the software GraphPad Prism6, and the IC50 value was obtained.

Sequence of BRD2(1,2) (P25440 65-459): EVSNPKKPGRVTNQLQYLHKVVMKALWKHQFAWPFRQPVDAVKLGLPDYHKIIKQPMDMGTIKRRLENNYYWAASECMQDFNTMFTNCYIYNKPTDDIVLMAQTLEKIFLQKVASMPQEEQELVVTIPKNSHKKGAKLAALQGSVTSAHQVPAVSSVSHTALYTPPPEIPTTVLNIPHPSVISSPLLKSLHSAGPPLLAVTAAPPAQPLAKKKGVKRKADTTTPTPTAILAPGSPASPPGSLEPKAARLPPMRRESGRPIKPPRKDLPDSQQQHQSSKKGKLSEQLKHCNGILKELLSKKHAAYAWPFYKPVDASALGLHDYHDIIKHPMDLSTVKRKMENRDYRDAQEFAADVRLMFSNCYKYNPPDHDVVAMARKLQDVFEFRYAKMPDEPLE

IC50 [1] [nM]	IC50 [3] [nM]	SMILES	IC50 [2] [nM]	inhibitory action on MCF-7 cells (in words) [3]
2.3	54	[2H]C([2H])([2H])n1cc(-c2cc(NS(=O)(=O)CC)ccc2N2CCC3(CC2)CC3)c2cc[nH]c2c1=O [Compound 41]	5	–
–	100	[2H]C([2H])([2H])n1cc(-c2cc(S(=O)(=O)CC)ccc2N2CCC3(CC3)C2)c2cc[nH]c2c1=O [Compound 55, 4-(5(ethylsulfonyl)-2-(5-aza-spiro[2.4]heptan-5-yl)phenyl)-6-trideuteromethyl-1H-pyrrolo[2,3-c]pyridin-7(6H)-one]	21	–
2	14	[2H]C([2H])([2H])n1cc(-c2cc(S(C)(=O)=O)ccc2N2CCC3(CC2)CC3(F)F)c2cc[nH]c2c1=O [Compound 184, 4-(2-(1,1-difluoro-6-aza-spiro[2.5]octan-6-yl)-5-(methylsulfonyl)phenyl)-6-trideuteromethyl-1H-pyrrolo[2,3-c]pyridin-7(6H)-one]	8.1	effective inhibitory action
1.8	–	[2H]C([2H])([2H])n1cc(-c2cc(S(C)(=O)=O)c(F)cc2N2CCC3(CC2)CC3(F)F)c2cc[nH]c2c1=O [Compound 219, 4-(2-(1,1-difluoro-6-aza-spiro[2.5]octan-6-yl)-4-fluoro-5-(methylsulfonyl)phenyl)-6-trideuteromethyl-1H-pyrrolo[2,3-c]pyridin-7(6H)-one]	7.1	–

Reference: patent publication US12162878B2 (HINOVA PHARMACEUTICALS INC., priority 2018, dated 2024)
